This is an account of results in patent US9139609B2, “C-4″ position substituted macrolide derivative” (priority 2011, dated 2015).

In brackets after ≈: the same amount, converted by molar mass.

Common to all, as to format: cell-based
For test [1], the system named is Haemophilus infuenzae ATCC43095. Put plainly: In vitro antibacterial activity, microbroth dilution method (CLSI method), test bacterium A. Conditions: for MIC: read-out: MIC (minimum inhibitory concentration), test bacterium A. On the procedure:
(§1) In vitro antibacterial activities of the compounds of the present invention against various test bacteria were measured according to the microbroth dilution method (CLSI method). Among them, the bacteria C, D and E are erythromycin resistant bacteria. The MIC values (minimum inhibitory concentration, μg/ml) for the test bacteria A and B are exemplified in Table 22.
A general note: In broth dilution the organism is exposed to a series of concentrations in liquid medium.

Test [2] relates to Streptococcus pneumoniae ATCC49619. As to the kind of experiment: In vitro antibacterial activity, microbroth dilution method (CLSI method), test bacterium B. Conditions: for MIC: read-out: MIC (minimum inhibitory concentration), test bacterium B. On the procedure:
as §1

Test [3] has as its system Mycoplasma pneumoniae MSC04933. As to the kind of experiment: In vitro antibacterial activity, microbroth dilution method (CLSI method), test bacterium E (erythromycin resistant). Conditions: read-out: MIC (minimum inhibitory concentration), test bacterium E. On the procedure: as §1
For test [4], the system named is Streptococcus pneumoniae ATCC700904. Put plainly: In vitro antibacterial activity, microbroth dilution method (CLSI method), test bacterium C (erythromycin resistant). Conditions: read-out: MIC (minimum inhibitory concentration), test bacterium C. On the procedure:
as §1

Test [5] has as its system Streptococcus pyogenes M808. As to the kind of experiment: In vitro antibacterial activity, microbroth dilution method (CLSI method), test bacterium D (erythromycin resistant). Conditions: read-out: MIC (minimum inhibitory concentration), test bacterium D. On the procedure:
as §1

Regarding `CC[C@H]1OC(=O)[C@H](C)[C@@H](O[C@H]2C[C@@](C)(OC)[C@@](O)(CN(C)CCN(C)C(C)(C)c3ccccc3OC)[C@H](C)O2)[C@H](C)[C@@H](O[C@@H]2O[C@H](C)C[C@H](N(C)C)[C@H]2O)[C@@](C)(OC)C[C@@H](C)[C@@H]2NCCN3C(=O)O[C@@]1(C)[C@H]3[C@@H]2C` [Example340], the values for the MIC in test [1] and in test [2] were 4 µg/mL (≈ 3.82 µM) and 0.06 µg/mL (≈ 0.0572 µM), respectively.
As to `CC[C@H]1OC(=O)[C@H](C)[C@@H](O[C@H]2C[C@@](C)(OC)[C@@](O)(CN(C)CCN(C)C(C)(C)c3ccccc3OC)[C@H](C)O2)[C@H](C)[C@@H](O[C@@H]2O[C@H](C)C[C@H](N(C)C)[C@H]2O)[C@@]2(C)C[C@@H](C)C3(NCCN4C(=O)O[C@@]1(C)[C@H]4[C@H]3C)O2` [Example341], in test [1], the “MIC (minimum inhibitory concentration), test bacterium A” value stood at 4 µg/mL (≈ 3.87 µM). Further, in test [2], the “MIC (minimum inhibitory concentration), test bacterium B” value stood at 0.06 µg/mL (≈ 0.0581 µM).
For `CC[C@H]1OC(=O)[C@H](C)[C@@H](O[C@H]2C[C@@](C)(OC)[C@@](O)(CN(C)CCN(C)C(C)(C)c3ccccc3OC)[C@H](C)O2)[C@H](C)[C@@H](O[C@@H]2O[C@H](C)C[C@H](N(C)C)[C@H]2O)[C@@](C)(OC(N)=O)C[C@@H](C)C(=O)[C@H](C)[C@H]2NC(=O)O[C@@]21C` [Example342], the figures for the MIC in test [1] and in test [2] were 4 µg/mL (≈ 3.81 µM) and 0.06 µg/mL (≈ 0.0571 µM), respectively.
Consider `CC[C@H]1OC(=O)[C@H](C)[C@@H](O[C@H]2C[C@@](C)(OC)[C@@](O)(CN(C)CCN(C)C)[C@H](C)O2)[C@H](C)[C@@H](O[C@@H]2O[C@H](C)C[C@H](N(C)C)[C@H]2O)[C@@](C)(OC(=O)NC/C=C/c2ccc3ncccc3c2)C[C@@H](C)C(=O)[C@H](C)[C@H]2NC(=O)O[C@@]21C` [Example348], for which the MIC turned out to be 16 µg/mL (≈ 14.8 µM) in test [1] and 0.03 µg/mL (≈ 0.0277 µM) in test [2].
Take `CC[C@H]1OC(=O)[C@H](C)[C@@H](O[C@H]2C[C@@](C)(OC)[C@@](O)(CN(C)CCN(C)C(C)(C)c3ccccc3OC)[C@H](C)O2)[C@H](C)[C@@H](O[C@@H]2O[C@H](C)C[C@H](N(C)C)[C@H]2O)[C@@](C)(OC)C[C@@H](C)C(=O)[C@H](C)[C@H]2C(C#N)C(=O)O[C@@]21C` (some centres unmarked) [Example363]: the MIC in test [1] was 8 µg/mL (≈ 7.65 µM); in test [2], 0.06 µg/mL (≈ 0.0574 µM).
In the case of `CC[C@H]1OC(=O)[C@H](C)[C@@H](O[C@H]2C[C@@](C)(OC)[C@@](O)(CN(C)CCN(C)C)[C@H](C)O2)[C@H](C)[C@@H](O[C@@H]2O[C@H](C)C[C@H](N(C)C)[C@H]2O)[C@@](C)(OC)C[C@@H](C)C(=O)[C@H](C)[C@H]2C(SCCCn3cnc4c(N)ncnc43)C(=O)O[C@@]21C` (some centres unmarked) [Example364], the MIC in test [1] is 8 µg/mL (≈ 7.32 µM); in test [2], 0.03 µg/mL (≈ 0.0274 µM).
Turning to `CC[C@H]1OC(=O)[C@H](C)[C@@H](O[C@H]2C[C@@](C)(OC)[C@@](O)(CN(C)CCN(C(C)C)C(C)C)[C@H](C)O2)[C@H](C)[C@@H](O[C@@H]2O[C@H](C)C[C@H](N(C)C)[C@H]2O)[C@@](C)(OC)C[C@@H](C)C(=O)[C@H](C)[C@H]2N(CCNS(C)(=O)=O)C(=O)O[C@]12C` [Example404], the MIC worked out at 4 µg/mL (≈ 3.76 µM) in test [1] and 0.03 µg/mL (≈ 0.0282 µM) in test [2].
Turning to `CC[C@H]1OC(=O)[C@H](C)[C@@H](O[C@H]2C[C@@](C)(OC)[C@@](O)(CN(CC)CCN(CC)CC)[C@H](C)O2)[C@H](C)[C@@H](O[C@@H]2O[C@H](C)C[C@H](N(C)C)[C@H]2O)[C@@](C)(OC)C[C@@H](C)C(=O)[C@H](C)[C@H]2N(CCNS(C)(=O)=O)C(=O)O[C@]12C` [Example413], the MIC in test [1] was found to be 4 µg/mL (≈ 3.81 µM); in test [2], 0.03 µg/mL (≈ 0.0286 µM).
On to `CC[C@H]1OC(=O)[C@H](C)[C@@H](O[C@H]2C[C@@](C)(OC)[C@@](O)(CN(C)CCN(CC)C3CCC3)[C@H](C)O2)[C@H](C)[C@@H](O[C@@H]2O[C@H](C)C[C@H](N(C)C)[C@H]2O)[C@@](C)(OC)C[C@@H](C)C(=O)[C@H](C)[C@H]2N(CCCS(C)(=O)=O)C(=O)O[C@]12C` [Example418], for which the MIC in test [1] was 4 µg/mL (≈ 3.77 µM); in test [2], 0.03 µg/mL (≈ 0.0283 µM).
For `CC[C@H]1OC(=O)[C@H](C)[C@@H](O[C@H]2C[C@@](C)(OC)[C@@](O)(CN(C)CCN(CC)CC)[C@H](C)O2)[C@H](C)[C@@H](O[C@@H]2O[C@H](C)C[C@H](N(C)C)[C@H]2O)[C@@](C)(OC)C[C@@H](C)C(=O)[C@H](C)[C@H]2N(CCN3CCNS3(=O)=O)C(=O)O[C@]12C` [Example440] the same measures were 4 µg/mL (≈ 3.76 µM) and 0.03 µg/mL (≈ 0.0282 µM).
In the case of `CC[C@H]1OC(=O)[C@H](C)[C@@H](O[C@H]2C[C@@](C)(OC)[C@@](O)(CN(CCOC)CCN(CC)CC)[C@H](C)O2)[C@H](C)[C@@H](O[C@@H]2O[C@H](C)C[C@H](N(C)C)[C@H]2O)[C@@](C)(OC)C[C@@H](C)C(=O)[C@H](C)[C@H]2N(CCNS(C)(=O)=O)C(=O)O[C@]12C` [Example443], the MIC in test [1] stood at 4 µg/mL (≈ 3.7 µM); in test [2], 0.03 µg/mL (≈ 0.0278 µM).
Turning to `CC[C@H]1OC(=O)[C@H](C)[C@@H](O[C@H]2C[C@@](C)(OC)[C@@](O)(CN(C)CCN3C4CCC3CC4)[C@H](C)O2)[C@H](C)[C@@H](O[C@@H]2O[C@H](C)C[C@H](N(C)C)[C@H]2O)[C@@](C)(OC)C[C@@H](C)C(=O)[C@H](C)[C@H]2N(CCNS(C)(=O)=O)C(=O)O[C@]12C` [Example446], the MIC in test [1] amounted to 4 µg/mL (≈ 3.77 µM); in test [2], 0.03 µg/mL (≈ 0.0283 µM).
With `CC[C@H]1OC(=O)[C@H](C)[C@@H](O[C@H]2C[C@@](C)(OC)[C@@](O)(CN(C)CCN(C(C)C)C(C)C)[C@H](C)O2)[C@H](C)[C@@H](O[C@@H]2O[C@H](C)C[C@H](N(C)C)[C@H]2O)[C@@](C)(OC)C[C@@H](C)C(=O)[C@H](C)[C@H]2N(CCS(=O)(=O)NC)C(=O)O[C@]12C` [Example451], the results for the MIC in test [1] and in test [2] were 4 µg/mL (≈ 3.76 µM) and 0.03 µg/mL (≈ 0.0282 µM), respectively.
As for `CC[C@H]1OC(=O)[C@H](C)[C@@H](O[C@H]2C[C@@](C)(OC)[C@@](O)(CN(C)CCN(C(C)C)C(C)C)[C@H](C)O2)[C@H](C)[C@@H](O[C@@H]2O[C@H](C)C[C@H](N(C)C)[C@H]2O)[C@@](C)(OC)C[C@@H](C)C(=O)[C@H](C)[C@H]2N(CCOS(N)(=O)=O)C(=O)O[C@]12C` [Example456], the figures for the MIC in test [1] and in test [2] were 2 µg/mL (≈ 1.88 µM) and 0.03 µg/mL (≈ 0.0281 µM), respectively.
On to `CC[C@H]1OC(=O)[C@H](C)[C@@H](O[C@H]2C[C@@](C)(OC)[C@@](O)(CN(C)CCN(CC)CC)[C@H](C)O2)[C@H](C)[C@@H](O[C@@H]2O[C@H](C)C[C@H](N(C)C)[C@H]2O)[C@@](C)(OC)C[C@@H](C)C(=O)[C@H](C)[C@H]2NC(=O)O[C@@]21C` [Example 299], for which the MIC in test [3] is 0.5 to 1 µg/mL (≈ 0.546 to 1.09 µM); in test [4] it was 0.12 to 0.25 µg/mL (≈ 0.131 to 0.273 µM); in test [5], at least 16 µg/mL.
For `CC[C@H]1OC(=O)[C@H](C)[C@@H](O[C@H]2C[C@@](C)(OC)[C@@](O)(CN(C)CCN(CC)CC)[C@H](C)O2)[C@H](C)[C@@H](O[C@@H]2O[C@H](C)C[C@H](N(C)C)[C@H]2O)[C@@](C)(OC)C[C@@H](C)C(=NO)[C@H](C)[C@H]2N(CCNS(C)(=O)=O)C(=O)O[C@]12C` [Example 334] the same measures were at most 0.25 µg/mL, 0.12 to 0.25 µg/mL (≈ 0.114 to 0.238 µM) and 4 to 8 µg/mL (≈ 3.8 to 7.61 µM).
With `CC[C@H]1OC(=O)[C@H](C)[C@@H](O[C@H]2C[C@@](C)(OC)[C@@](O)(CN(C)CCN(C(C)C)C(C)C)[C@H](C)O2)[C@H](C)[C@@H](O[C@@H]2O[C@H](C)C[C@H](N(C)C)[C@H]2O)[C@@](C)(OC)C[C@@H](C)C(=NO)[C@H](C)[C@H]2N(CCNS(C)(=O)=O)C(=O)O[C@]12C` [Example 458], the MIC in test [1] is 4 µg/mL (≈ 3.71 µM); in test [2], 0.06 µg/mL (≈ 0.0556 µM); in test [4], 0.12 to 0.25 µg/mL (≈ 0.111 to 0.232 µM); in test [5] it was 4 to 8 µg/mL (≈ 3.71 to 7.41 µM).
